Measurements: patent publication US12116371B2, “Substituted pyridines as irreversible inhibitors of menin-MLL interaction” (BIOMEA FUSION, INC., priority 2018, dated 2024)
Read-outs that look alike come from different tables or passages of the source.

How the values were obtained:
Test in all cases: Long-term proliferation (LTP) assay, CellTiterGlo (Example 103)
MOLM-13 (MLL-AF9) cells = assay type: cell-based, human; settings: for IC50: Homo sapiens, MOLM-13 (MLL-AF9), LTP assay
Procedure: (§1) The day of the experiment (TO) all the cell line suspensions were counted by Cell Viability Analyser, Vi-CELL and properly diluted with fresh medium to obtain the cell density reported in the Test System paragraph.
(§2) Cells were tested after 4 passages after thawing.
(§3) 200 μL/well and 150 μL/well of cell suspension were added into the 0.4 µL/well and 0.3 μL/well compound plates, respectively. • Cell plate containing 200 μL/well suspension was incubated at 37° C. in a humidified incubator with 5% CO2. • From each well of the 150 µL/well cell assay plate, 100 μL were harvested and transferred into a 96-well Optiplate (Perkin Elmer, Cat. n. 6005290) and cell viability was measured as described in 4.3 paragraphs (TO). • After four days in culture (T4) 150 μL/well of fresh medium were added into a new […] copy compound plate. • From each well of the 200 μL/well cell assay plate: • 100 μL were sampled for the cell viability measurement as described in 4.3 paragraphs (T4). • 50 μL were harvested and added to the 150 μL/well compound plate prepared as described in the first point to dilute 1:4 the cell suspension. • The cell assay plate diluted and containing 200 µL/well suspension were incubated at 37° C. in a humidified incubator with 5% CO2.
(§4) At T7-T11-T14 it was proceeded as described in T4, with the exception that no further cell dilution was carried out at T14.
(§5) Plates containing the samples to be tested were equilibrated at room temperature for approximately 30 min and then 30 μL/well of the Promega CellTiterGlo® reagent were added. Contents will be mixed for 5 min on an orbital shaker to induce cell lysis and then incubated at room temperature for an additional 10 min to stabilize the luminescent signal.
(§6) Luminescence was read by using VictorV (Perkin Elmer) multilabel plate reader using the standard protocol for luminescence in 96 well plate.
(§7) Data were expressed as % of inhibition compared to the 0.2% DMSO negative control, and was calculated as follows: % inhibition=100−[(RLU sample)×100/(RLU average controls*)] • *cells containing 0.2% DMSO
(§8) CRCs were analysed by GraphPad and IC50 values were calculated by non-linear regression using 4 parameter-logistic equation. IC50 (M) values were reported in the final data table.

MV4-11 (MLL-AF4) cells = assay type: cell-based, human; settings: for IC50: Homo sapiens, MV4-11 (MLL-AF4), LTP assay
Procedure: as §1, §2, §3, §4, §5, §6, §7, §8

RS4-11 (MLL-AF4) cells = assay type: cell-based; settings: for IC50: Homo sapiens, RS4-11 (MLL-AF4), LTP assay
Procedure: as §1, §2, §3, §4, §5, §6, §7, §8

HL-60 cells = assay type: cell-based; settings: for IC50: Homo sapiens
Procedure: as §1, §2, §3, §4, §5, §6, §7, §8

[1] = 96 h, Day 4, read-out: Day 4 IC50
[2] = 168 h, Day 7, read-out: Day 7 IC50
[3] = 264 h, Day 11, read-out: Day 11 IC50
[4] = 336 h, Day 14, read-out: Day 14 IC50

C=CC(=O)NC1CCCN(Cc2ccnc(C(=O)Nc3ccc(-c4cc5c(N6CCOCC6)ncnc5[nH]4)cc3)c2)C1 (stereo not shown) [Compound 10]
IC50 (MOLM-13 (MLL-AF9) cells; [1]): 260 nM | IC50 (MOLM-13 (MLL-AF9) cells; [2]): 280 nM | IC50 (MOLM-13 (MLL-AF9) cells; [3]): 240 nM | IC50 (MOLM-13 (MLL-AF9) cells; [4]): 230 nM | effect on cell viability at T4 (MOLM-13 (MLL-AF9) cells; MOLM-13, T4, increasing concentrations): fully inhibited | IC50 (MV4-11 (MLL-AF4) cells; [1]): 460 nM | IC50 (MV4-11 (MLL-AF4) cells; [2]): 290 nM | IC50 (MV4-11 (MLL-AF4) cells; [3]): 220 nM | IC50 (MV4-11 (MLL-AF4) cells; [4]): 200 nM | effect on cell viability at T4 (MV4-11 (MLL-AF4) cells; MV4-11, T4, increasing concentrations): fully inhibited | IC50 (RS4-11 (MLL-AF4) cells; [1]): 500 nM | IC50 (RS4-11 (MLL-AF4) cells; [2]): 470 nM | IC50 (RS4-11 (MLL-AF4) cells; [3]): > 5000 nM | effect on cell viability at T4 (RS4-11 (MLL-AF4) cells; RS4;11, T4, increasing concentrations): fully inhibited | IC50 (HL-60 cells; 96 h, Day 4, LTP assay, read-out: Day 4 IC50): 430 nM | IC50 (HL-60 cells; 168 h, Day 7, LTP assay, read-out: Day 7 IC50): 260 nM | IC50 (HL-60 cells; 264 h, Day 11, LTP assay, read-out: Day 11 IC50): 290 nM | IC50 (HL-60 cells; 336 h, Day 14, LTP assay, read-out: Day 14 IC50): 270 nM | effect on cell viability at T4 (HL-60 cells; T4, increasing concentrations): fully inhibited
